Laboratory results: US20060257539A1 (priority 2005, published 2006)

Experiments:
[1] = comparative antimicrobial activity in various foodstuff or media (summary table); parameters: key: + means antimicrobial activity, multiple + indicates increased antimicrobial activity; ++: multiple + indicates increased antimicrobial activity; +++: multiple + indicates increased antimicrobial activity; − means no antimicrobial activity
[2] = test system: C. botulinum Toxin type A (proteolytic) spores; format: cell-based, Clostridium botulinum; details: pH 5.5
[3] = test system: C. botulinum Toxin type B (proteolytic) spores; format: cell-based, Clostridium botulinum; details: pH 5.5
[4] = test system: C. botulinum Toxin type B (non-proteolytic) spores; format: cell-based, Clostridium botulinum; details: pH 5.5
[5] = test system: C. botulinum Toxin type E spores; format: cell-based, Clostridium botulinum; details: pH 5.5
[6] = test system: all tested C. botulinum strains (spores); format: cell-based, Clostridium botulinum
[7] = test system: C. botulinum 33A (proteolytic) vegetative cells; format: cell-based, Clostridium botulinum; details: pH 5.5
[8] = test system: C. botulinum 53B (proteolytic) vegetative cells; format: cell-based, Clostridium botulinum; details: pH 5.5
[9] = test system: C. botulinum Alaska E (non-proteolytic) vegetative cells; format: cell-based, Clostridium botulinum; details: pH 5.5
[10] = test system: C. botulinum Beluga E (Non-proteolytic) vegetative cells; format: cell-based, Clostridium botulinum; details: pH 5.5
[11] = test system: all strains of C. botulinum tested (vegetative cells); format: cell-based, Clostridium botulinum
[12] = test system: C. botulinum Alaska E vegetative cells; format: cell-based, Clostridium botulinum
[13] = test system: C. botulinum Beluga E vegetative cells; format: cell-based, Clostridium botulinum
[14] = test system: C. botulinum E mixed strains vegetative cells; format: cell-based, Clostridium botulinum
[15] = test system: Lactococcus lactis subsp. cremoris; format: cell-based
[16] = test system: Lactococcus lactis subsp. cremoris; format: cell-based; remark: listed apart in the source
Lactobacillus plantarum = format: cell-based
[17] = test system: Lactococcus lactis subsp. cremoris; format: cell-based; remark: listed apart in the source
[18] = standard plate well diffusion assay of RTD beverage; format: cell-based

## ε-poly-L-lysine
[1]; BHI broth
  antimicrobial activity: −
[1]; Beverages
  antimicrobial activity: +
[1]; Brain heart infusion agar (BHI)
  antimicrobial activity: −
[1]; Green beans packed in water
  antimicrobial activity: −
[1]; Hot dogs
  antimicrobial activity: −
[1]; Savory cream
  antimicrobial activity: −
[2]
  Inhibition zone against indicator C. botulinum strain Toxin type A (proteolytic): 0 mm
[3]
  Inhibition zone against indicator C. botulinum strain Toxin type B (proteolytic): 0 mm
[4]
  Inhibition zone against indicator C. botulinum strain Toxin type B (non-proteolytic): 0 mm
[5]
  Inhibition zone against indicator C. botulinum strain Toxin type E: 0 mm
[6]
  inhibition of growth of C. botulinum from spores (in words): unable to inhibit the growth of C. botulinum from spores
[7]
  Inhibition zone against indicator C. botulinum strain 33A (proteolytic): 0 mm
[8]
  Inhibition zone against indicator C. botulinum strain 53B (proteolytic): 0 mm
[9]
  Inhibition zone against indicator C. botulinum strain Alaska E (non-proteolytic): 0 mm
[10]
  Inhibition zone against indicator C. botulinum strain Beluga E (Non-proteolytic): 0 mm
[11]
  inhibition of growth of C. botulinum strains from vegetative cells (in words): did not show clear or strong inhibition
[12]
  Inhibition zone against indicator C. botulinum strain Alaska E: 0 mm
[13]
  Inhibition zone against indicator C. botulinum strain Beluga E: 0 mm
[14]
  Inhibition zone against indicator C. botulinum E mixed strains: 0 mm
[15]
  Inhibition zone: 0 mm
[16]
  effect on apparent nisin activity (in words): significantly increased
Lactobacillus plantarum
  inhibition of growth of L. plantarum (in words): very limited inhibition on the initial growth of L. plantarum
[17]
  Apparent nisin activity: 0 IU/g
  effect on measurable nisin activity in dairy product (in words): increased the measurable nisin activity
[18]; very low levels of ε-poly-L-lysine (50 ppm) added to nisin 250 IU/ml
  effect on apparent nisin activity in RTD beverage (in words): significantly increased
[18]; ε-poly-L-lysine 50 ppm alone, fruit juice-containing RTD beverage
  Inhibition zone: 0 mm
